According to publication PMC12040169 (PLOS Biology, 2025):

Assay: in vitro
Details: human, hela cells, % viability

SMILES	viability at 28.5 h, 10 µM [%]
Cc1cnc(CNC(=O)N2CCN(c3ccccc3)CC2)cn1 [CBK155174]	101
O=C(NCc1cccc2ccccc12)N1CCN(c2ccccc2)CC1 [CBK155175]	89.1
O=C(NC(c1ccccc1)c1ccccc1)N1CCN(c2ccccc2)CC1 [CBK155177]	90.7
O=C(NCCN1CCOCC1)N1CCN(c2ccccc2)CC1 [CBK155180]	83.8
COCCNC(=O)N1CCN(c2ccccc2)CC1 [CBK155181]	96.1
O=C(Nc1ccc2c(c1)OCCO2)N1CCN(c2ccccc2)CC1 [CBK155187]	94.7
O=C(NCc1ccc(Cl)cc1)N1CCN(c2ccccc2)CC1 [CBK155193]	97.9
O=C(NCC(c1ccccc1)c1ccccc1)N1CCN(c2ccccc2)CC1 [CBK155197]	89.8
O=C(NCCOc1ccccc1)N1CCN(c2ccccc2)CC1 [CBK155198]	88.5
COc1ccc(CCNC(=O)N2CCN(c3ccccc3)CC2)cc1 [CBK155199]	96.8
CCN(CC)CCNC(=O)N1CCN(c2ccccc2)CC1 [CBK155202]	116
CC(C)CCNC(=O)N1CCN(c2ccccc2)CC1 [CBK155203]	101
CC(NC(=O)N1CCN(c2ccccc2)CC1)c1ccccc1 (stereo not shown) [CBK155207]	99.3
CCN(Cc1ccccc1)C(=O)NCCCN1CCN(C)CC1 [CBK155212]	102
CCN(Cc1ccccc1)C(=O)NCCCSC [CBK155214]	94.3
CCN(Cc1ccccc1)C(=O)NCc1cnc(C)cn1 [CBK155218]	107
CCN(Cc1ccccc1)C(=O)NCCc1c[nH]cn1 [CBK155220]	92.8
CCN(Cc1ccccc1)C(=O)NCCc1c[nH]c2ccc(OC)cc12 [CBK155226]	87
CCN(Cc1ccccc1)C(=O)Nc1ccc2[nH]ccc2c1 [CBK155229]	95.2
CCN(Cc1ccccc1)C(=O)Nc1ccc2c(c1)OCCO2 [CBK155231]	100
CCN(Cc1ccccc1)C(=O)Nc1ccc(C)cc1 [CBK155248]	99.1
CCOC(=O)CCCNC(=O)N(CC)Cc1ccccc1 [CBK155252]	106
COc1ccc(C(=O)N(C)C2CCN(C)C2)cc1Nc1cncc(-c2cc3ccccc3[nH]2)n1 (stereo not shown) [CBK155260T]	108
CSc1nnc(N(C)S(=O)(=O)c2ccc(C)cc2)s1 [CBK155272]	87.2

SMILES	viability at 28.5 h, 10 µM [%]
N#Cc1ccc(CNC(=O)N2CCc3ccccc3C2)cc1 [CBK155287]	107
NC(=O)CCNC(=O)N1CCc2ccccc2C1 [CBK155288]	104
Cc1ccc(NC(=O)N2CCc3ccccc3C2)cc1 [CBK155309]	93.6
CSCCCNC(=O)N(CCc1ccccc1)Cc1ccccc1 [CBK155317]	87.2
N#Cc1cccc(S(=O)(=O)Nc2ccc(-c3nnn[nH]3)cc2)c1 [CBK155427]	95.5
O=C(N1CCc2ccc(S(=O)(=O)Nc3ccc(-c4nnn[nH]4)cc3)cc2C1)C(F)(F)F [CBK155437]	99.9
CCc1c(C)nc2ccccc2c1SCCOC(=O)Nc1ccccc1 [CBK155466T]	85.6
CCc1c(S(=O)(=O)CCC(=O)OC)c2ccccc2[n+]([O-])c1C [CBK155469T]	91.4
CN(C)CC(=O)N1Cc2cccc3c2c(cn3S(=O)(=O)c2ccccc2)C1 [CBK155548T]	94.5
CCc1c(C)nc2ccccc2c1SCCOC(=O)Nc1ccc(OC)cc1 [CBK155554T]	92.5
COc1ccc(CNC(=O)N2CCN(c3ccccc3OC)CC2)cc1OC [CBK155609]	89.2
COc1ccccc1N1CCN(C(=O)NCCCN2CCCC2=O)CC1 [CBK155612]	99.5
COc1ccccc1N1CCN(C(=O)Nc2cccnc2)CC1 [CBK155617]	98.7
CCOC(=O)CCCNC(=O)N1CCN(c2ccccc2OC)CC1 [CBK155618]	95.9
CN1CCN(CCCNC(=O)N2CCN(Cc3ccccc3)CC2)CC1 [CBK155621]	91.3
O=C(NCCc1c[nH]c2ccccc12)N1CCN(Cc2ccccc2)CC1 [CBK155646]	78.9
O=C(NCC(c1ccccc1)c1ccccc1)N1CCN(Cc2ccccc2)CC1 [CBK155651]	83.9
O=C(NCCOc1ccccc1)N1CCN(Cc2ccccc2)CC1 [CBK155652]	93.3
CC(C)CCNC(=O)N1CCN(Cc2ccccc2)CC1 [CBK155657]	87.2
O=C(NC1CCc2ccccc21)N1CCN(Cc2ccccc2)CC1 (stereo not shown) [CBK155662]	97
O=C(Nc1cccnc1)N1CCN(Cc2ccccc2)CC1 [CBK155663]	87.7
CCOC(=O)CCCNC(=O)N1CCN(Cc2ccccc2)CC1 [CBK155664]	89.2
CSCCCNC(=O)N1CCN(CCN2CCOCC2)CC1 [CBK155669]	90.9
O=C(NCc1cccc(C(F)(F)F)c1)N1CCN(CCN2CCOCC2)CC1 [CBK155671]	98.9

SMILES	viability at 28.5 h, 10 µM [%]
Cc1cnc(CNC(=O)N2CCN(CCN3CCOCC3)CC2)cn1 [CBK155673]	95.2
O=C(O)c1cccc(NS(=O)(=O)c2ccc(Br)cc2F)c1 [CBK155691]	95.6
N#Cc1cccc(S(=O)(=O)Nc2cccc(C(=O)O)c2)c1 [CBK155699]	95.7
O=C(O)c1cccc(NS(=O)(=O)c2ccc3c(c2)CN(C(=O)C(F)(F)F)CC3)c1 [CBK155709]	92.2
O=C(O)c1cccc(NS(=O)(=O)c2cccc([N+](=O)[O-])c2)c1 [CBK155711]	99.2
O=C(O)c1cccc(NS(=O)(=O)CC(F)(F)F)c1 [CBK155712]	94.3
Cc1cc(S(=O)(=O)Nc2ccc3[nH]ccc3c2)c(C)o1 [CBK155743]	71.4
O=S(=O)(/C=C/c1ccccc1)Nc1cccc2[nH]ccc12 [CBK155772]	103
COc1ccc2[nH]cc(CCNC(=O)N3CCN(CCN4CCOCC4)CC3)c2c1 [CBK155818]	101
O=C(Nc1ccccc1Cl)N1CCN(CCN2CCOCC2)CC1 [CBK155824]	89.4
CC(C)CNC(=O)N1CCN(CCN2CCOCC2)CC1 [CBK155826]	88.1
NC(=O)c1ccc(NC(=O)N2CCN(CCN3CCOCC3)CC2)cc1 [CBK155831]	81.6
CCN(CC)CCCNC(=O)N1CCN(CCN2CCOCC2)CC1 [CBK155837]	90.9
CSCCCNC(=O)N1CCNC(=O)C1 [CBK155848]	98.3
O=C1CN(C(=O)NCc2cccc(C(F)(F)F)c2)CCN1 [CBK155850]	105
O=C1CN(C(=O)NCc2cccc3ccccc23)CCN1 [CBK155852]	102
O=C1CN(C(=O)Nc2ccc3c(c2)OCCO3)CCN1 [CBK155860]	92.9
O=C1CN(C(=O)Nc2ccc(Cl)cc2)CCN1 [CBK155861]	81.3
O=C1CN(C(=O)Nc2ccccc2Cl)CCN1 [CBK155862]	96.7
O=C1CN(C(=O)NCc2ccc(F)cc2)CCN1 [CBK155869]	88.2
O=C1CN(C(=O)NCCOc2ccccc2)CCN1 [CBK155871]	120
CN1CCC(N2CCN(C(=O)NCc3ccc(Cl)c(Cl)c3)CC2)CC1 [CBK155883]	92.5
Cc1cnc(CNC(=O)N2CCN(C3CCN(C)CC3)CC2)cn1 [CBK155886]	91.3
CN1CCC(N2CCN(C(=O)NCCN3CCOCC3)CC2)CC1 [CBK155891]	93.8

SMILES	viability at 28.5 h, 10 µM [%]
COc1ccc(CCNC(=O)N2CCN(C3CCN(C)CC3)CC2)cc1OC [CBK155897]	94.3
CN1CCC(N2CCN(C(=O)Nc3ccc(Cl)cc3)CC2)CC1 [CBK155899]	109
CC(=O)Nc1cccc(NC(=O)N2CCN(C3CCN(C)CC3)CC2)c1 [CBK155901]	85.1
CC(C)COC(=O)N1CCC2(CC1)CC(=O)N(Cc1ccc(S(C)(=O)=O)cc1)C2=O [CBK155948]	103
CN(C)C(=O)c1ccc(-c2ccc(COC3CCN(C(=O)Cc4ccc(F)cc4)CC3)c(S(C)(=O)=O)c2)cc1 [CBK155963]	96.1
CN(C)C(=O)c1ccc(-c2ccc(COC3CCN(C(=O)c4cc5ccccc5o4)CC3)c(S(C)(=O)=O)c2)cc1 [CBK155965]	94.6
CCN(CC)CCCNC(=O)N1CCCCC1CO (stereo not shown) [CBK155982]	97.9
O=C1CCCN1CCCNC(=O)N1CCCCC1CO (stereo not shown) [CBK155985]	91.8
CCOC(=O)N1CCC(NC(=O)N2CCCCC2CO)CC1 (stereo not shown) [CBK155991]	106
Cc1cc(CNC(=O)N(C)C2CCN(C)C2)no1 (stereo not shown) [CBK155992]	103
CN1CCN(CCCNC(=O)N(C)C2CCN(C)C2)CC1 (stereo not shown) [CBK155993]	96.4
CN1CCC(N(C)C(=O)NCC2COc3ccccc3O2)C1 (stereo not shown) [CBK155994]	100
CN1CCC(N(C)C(=O)NCc2ccc(Cl)c(Cl)c2)C1 (stereo not shown) [CBK155996]	92.4
CN1CCC(N(C)C(=O)NCc2cccc3ccccc23)C1 (stereo not shown) [CBK155999]	89.2
CN1CCC(N(C)C(=O)NC(c2ccccc2)c2ccccc2)C1 (stereo not shown) [CBK156000]	96.4
CN1CCC(N(C)C(=O)NCc2cccnc2)C1 (stereo not shown) [CBK156001]	93.5
CN1CCC(N(C)C(=O)Nc2ccc3[nH]ccc3c2)C1 (stereo not shown) [CBK156006]	92.2
CN1CCC(N(C)C(=O)Nc2ccc3c(c2)OCCO3)C1 (stereo not shown) [CBK156008]	116
CN1CCC(N(C)C(=O)NCc2c(Cl)cccc2Cl)C1 (stereo not shown) [CBK156014]	99
CN1CCC(N(C)C(=O)Nc2ccc(C(N)=O)cc2)C1 (stereo not shown) [CBK156015]	93.8
COc1ccc(CCNC(=O)N(C)C2CCN(C)C2)cc1 (stereo not shown) [CBK156019]	100
COc1cc(NC(=O)N(C)C2CCN(C)C2)cc(OC)c1OC (stereo not shown) [CBK156022]	101
